Source: EPA's CvTdb concentration-time database

Experiments:
[1] = test system: Rat; assay: concentration in kidney after dosing; conditions: 864 h; dosed: Perfluorooctane Sulfonate; 2 mg/kg; oral; Female; Harlan Sprague Dawley
[2] = test system: Rat; assay: concentration in liver after dosing; conditions: 6 h; dosed: Perfluorooctane Sulfonate; 20 mg/kg; oral; Female; F344
[3] = test system: Rat; assay: concentration in plasma after dosing; conditions: dosed: Perfluorooctane Sulfonate, 2 mg/kg, iv, Female, F344
[4] = test system: Rat; assay: concentration in liver after dosing; conditions: 6 h; dosed: Perfluorooctane Sulfonate; 20 mg/kg; oral; Male; Harlan Sprague Dawley
[5] = test system: Rat; assay: concentration in plasma after dosing; conditions: dosed: Perfluorooctane Sulfonate, 2 mg/kg, iv, Female, F344; remark: listed apart in the source
[6] = test system: Rat; assay: concentration in kidney after dosing; conditions: 6 h; dosed: Perfluorooctane Sulfonate; 2 mg/kg; oral; Female; Harlan Sprague Dawley
[7] = test system: Rat; assay: concentration in kidney after dosing; conditions: 3360 h; dosed: Perfluorooctane Sulfonate; 20 mg/kg; oral; Male; Harlan Sprague Dawley
[8] = test system: Rat; assay: concentration in liver after dosing; conditions: 24 h; dosed: Perfluorooctane Sulfonate; 2 mg/kg; oral; Female; Harlan Sprague Dawley
[9] = test system: Rat; assay: concentration in plasma after dosing; conditions: dosed: Perfluorooctane Sulfonate, 2 mg/kg, iv, Female, Harlan Sprague-Dawley
[10] = test system: Rat; assay: concentration in brain after dosing; conditions: 6 h; dosed: Perfluorooctane Sulfonate; 20 mg/kg; oral; Female; F344
[11] = test system: Rat; assay: concentration in liver after dosing; conditions: 1 h; dosed: Perfluorohexanoic Acid; 80 mg/kg; oral; Male; Harlan Sprague Dawley
[12] = test system: Rat; assay: concentration in plasma after dosing; conditions: dosed: Perfluorohexanoic Acid, 40 mg/kg, oral, Male, Harlan Sprague Dawley
[13] = test system: Rat; assay: concentration in brain after dosing; conditions: 0.5 h; dosed: Perfluorohexanoic Acid; 80 mg/kg; oral; Female; Harlan Sprague Dawley
[14] = test system: Rat; assay: concentration in liver after dosing; conditions: 6 h; dosed: Perfluorohexanoic Acid; 80 mg/kg; oral; Male; Harlan Sprague Dawley
[15] = test system: Rat; assay: concentration in liver after dosing; conditions: 12 h; dosed: Perfluorohexanoic Acid; 80 mg/kg; oral; Male; Harlan Sprague Dawley
[16] = test system: Rat; assay: concentration in kidney after dosing; conditions: 1 h; dosed: Perfluorohexanoic Acid; 80 mg/kg; oral; Female; Harlan Sprague Dawley
[17] = test system: Rat; assay: concentration in liver after dosing; conditions: 3 h; dosed: Perfluorohexanoic Acid; 80 mg/kg; oral; Female; Harlan Sprague Dawley
[18] = test system: Rat; assay: concentration in plasma after dosing; conditions: 0.5 h; dosed: Gemfibrozil; 50 mg/kg; oral; Male; Sprague-Dawley
[19] = test system: Rat; assay: concentration in plasma after dosing; conditions: 1 h; dosed: Gemfibrozil; 4.29 mg/kg; oral; Male; Sprague-Dawley
[20] = test system: Rat; assay: concentration in plasma after dosing; conditions: 0.25 h; dosed: Gemfibrozil; 50 mg/kg; oral; Male; Sprague-Dawley
[21] = test system: Rat; assay: concentration in plasma after dosing; conditions: 5 min; dosed: Gemfibrozil; 4.29 mg/kg; oral; Male; Sprague-Dawley
[22] = test system: Rat; assay: concentration in plasma after dosing; conditions: 10 h; dosed: Gemfibrozil; 50 mg/kg; oral; Male; Sprague-Dawley
[23] = test system: Rat; assay: concentration in plasma after dosing; conditions: 2 h; dosed: Gemfibrozil; 100 mg/kg; oral; Male; Sprague-Dawley
[24] = test system: Rat; assay: concentration in plasma after dosing; conditions: 10 min; dosed: Gemfibrozil; 50 mg/kg; oral; Male; Sprague-Dawley
[25] = test system: Rat; assay: concentration in plasma after dosing; conditions: 4 h; dosed: 2-Methyltetrahydrofuran; 40 mg/kg; iv; Female; Harlan Sprague Dawley
[26] = test system: Rat; assay: concentration in brain after dosing; conditions: 2 min; dosed: 2-Methyltetrahydrofuran; 40 mg/kg; iv; Female; Harlan Sprague Dawley
[27] = test system: Rat; assay: concentration in brain after dosing; conditions: 0.2 h; dosed: 2-Methyltetrahydrofuran; 40 mg/kg; iv; Male; Harlan Sprague Dawley
[28] = test system: Rat; assay: concentration in plasma after dosing; conditions: 4 h; dosed: 2-Methyltetrahydrofuran; 40 mg/kg; iv; Female; Harlan Sprague Dawley; remark: listed apart in the source
[29] = test system: Rat; assay: concentration in brain after dosing; conditions: 0.5 h; dosed: Fluorotelomer alcohol 8+2; 80 mg/kg; oral; Female; Harlan Sprague Dawley
[30] = test system: Rat; assay: concentration in kidney after dosing; conditions: 0.5 h; dosed: Fluorotelomer alcohol 8+2; 80 mg/kg; oral; Female; Harlan Sprague Dawley
[31] = test system: Rat; assay: concentration in brain after dosing; conditions: 3 h; dosed: Fluorotelomer alcohol 8+2; 80 mg/kg; oral; Female; Harlan Sprague Dawley
[32] = test system: Rat; assay: concentration in plasma after dosing; conditions: 5 min; dosed: 678-39-7; 12 mg/kg; iv; Male; F344
[33] = test system: Rat; assay: concentration in liver after dosing; conditions: 3 h; dosed: Fluorotelomer alcohol 8+2; 24 mg/kg; oral; Male; Harlan Sprague Dawley
[34] = test system: Rat; assay: concentration in kidney after dosing; conditions: 3 h; dosed: Fluorotelomer alcohol 8+2; 80 mg/kg; oral; Female; Harlan Sprague Dawley
[35] = test system: Rat; assay: concentration in liver after dosing; conditions: 12 h; dosed: Fluorotelomer alcohol 8+2; 24 mg/kg; oral; Male; Harlan Sprague Dawley
[36] = test system: Rat; assay: concentration in liver after dosing; conditions: 6 h; dosed: Fluorotelomer alcohol 8+2; 24 mg/kg; oral; Male; Harlan Sprague Dawley
[37] = test system: Rat; assay: concentration in brain after dosing; conditions: 3 h; dosed: Fluorotelomer alcohol 8+2; 80 mg/kg; oral; Female; Harlan Sprague Dawley; remark: listed apart in the source
[38] = test system: Rat; assay: concentration in liver after dosing; conditions: 0.5 h; dosed: Fluorotelomer alcohol 8+2; 80 mg/kg; oral; Female; Harlan Sprague Dawley
[39] = test system: Rat; assay: concentration in kidney after dosing; conditions: 12 h; dosed: Fluorotelomer alcohol 8+2; 80 mg/kg; oral; Female; Harlan Sprague Dawley
[40] = test system: Rat; assay: concentration in kidney after dosing; conditions: 1 h; dosed: Fluorotelomer alcohol 8+2; 80 mg/kg; oral; Female; Harlan Sprague Dawley

O=S(=O)([O-])C(F)(F)C(F)(F)C(F)(F)C(F)(F)C(F)(F)C(F)(F)C(F)(F)C(F)(F)F [Perfluorooctane Sulfonate]
Conditions | concentration in brain [ng/g] | concentration in kidney [ng/g] | concentration in liver [ng/g]
[1] | – | 3490 | –
[2] | – | – | 169000
[4] | – | – | 164000
[6] | – | 4220 | –
[7] | – | 1110 | –
[8] | – | – | 22900
[10] | 3430 | – | –

Conditions | concentration in plasma [ng/mL]
[3], 6 h | 4910
[3], 528 h | 2900
[3], 3216 h | 277
[5], 6 h | 4560
[5], 864 h | 1530
[9], 1 h | 4460
[9], 192 h | 2800
[9], 1704 h | 848

O=C(O)C(F)(F)C(F)(F)C(F)(F)C(F)(F)C(F)(F)F [Perfluorohexanoic Acid]
Conditions | concentration in brain [ng/g] | concentration in kidney [ng/g] | concentration in liver [ng/g]
[11] | – | – | 88800
[13] | 943 | – | –
[14] | – | – | 15400
[15] | – | – | 1910
[16] | – | 76600 | –
[17] | – | – | 14700

[12]
Conditions | concentration in plasma [ng/mL]
0.25 h | 54000
6 h | 31300

Cc1ccc(C)c(OCCCC(C)(C)C(=O)O)c1 [Gemfibrozil]
Conditions | concentration in plasma [ng/mL]
[18] | 7800
[19] | 258
[20] | 79300
[21] | 893
[22] | 1930
[23] | 10700
[24] | 110000

CC1CCCO1 (stereo unspecified) [2-Methyltetrahydrofuran]
Conditions | concentration in brain [ng/mL] | concentration in plasma [ng/mL]
[25] | – | 186
[26] | 38000 | –
[27] | 25500 | –
[28] | – | 245

O=C(O)CCC(F)(F)C(F)(F)C(F)(F)C(F)(F)C(F)(F)C(F)(F)C(F)(F)F [Fluorotelomer acid 7+3]
Conditions | concentration in brain [ng/g] | concentration in kidney [ng/g] | concentration in liver [ng/g] | concentration in plasma [ng/mL]
[29] | 114 | – | – | –
[30] | – | 357 | – | –
[31] | 1310 | – | – | –
[32] | – | – | – | 13.1
[33] | – | – | 2780 | –
[34] | – | 5820 | – | –
[35] | – | – | 1400 | –
[36] | – | – | 1860 | –
[37] | 1580 | – | – | –
[38] | – | – | 2020 | –
[39] | – | 2750 | – | –
[40] | – | 584 | – | –
